Results taken from article PMC11288027, “Exploring novel microbial metabolites and drugs for inhibiting Clostridioides difficile” (mSphere, 2024).
Structures can show the parent of a compound that is named as a salt. Where two headings read alike, the source gives them in different places.

Key:
L. brevis = assay: MIC against human gut microbiota; type: cell-based, Lactobacillus brevis; conditions: L. brevis ATCC-14864, MRS broth, 5% CO2
Bif. adolescentis = assay: MIC against human gut microbiota; type: cell-based, Bifidobacterium adolescentis; conditions: Bif. adolescentis HM- 633, BHIS broth, anaerobic
mycobacteria = tested on: mycobacteria; parameters: method as in PMID 33916775; conditions: cited from earlier work
B. dorei = assay: MIC against human gut microbiota; type: cell-based, Bacteroides dorei; conditions: B. dorei HM- 719, BHIS broth, anaerobic
Bif. breve = assay: MIC against human gut microbiota; type: cell-based, Bifidobacterium breve; conditions: Bif. breve ATCC 15700, BHIS broth, anaerobic
Bif. longum = assay: MIC against human gut microbiota; type: cell-based, Bifidobacterium longum; conditions: anaerobic; for MIC: Bifidobacterium longum, read-out: minimum inhibitory concentration (MIC)
Bif. angulatum = assay: MIC against human gut microbiota; type: cell-based, Bifidobacterium angulatum; conditions: Bif. angulatum HM- 1189, BHIS broth, anaerobic
E. faecium = assay: MIC against human gut microbiota; type: cell-based, Enterococcus faecium; conditions: E. faecium HM-202, TSB, aerobic
E. fecalis = assay: MIC against human gut microbiota; type: cell-based, Enterococcus faecalis; conditions: E. fecalis HM-970, TSB, aerobic
L. casei = assay: MIC against human gut microbiota; type: cell-based; conditions: L. casei ATCC 334, MRS broth, 5% CO2
B. fragilis = assay: MIC against human gut microbiota; type: cell-based, Bacteroides fragilis; conditions: anaerobic; for MIC: Bacteroides fragilis, read-out: minimum inhibitory concentration (MIC)
L. rhamanosus = assay: MIC against human gut microbiota; type: cell-based, Lactobacillus rhamnoosus; conditions: L. rhamanosus ATCC-53103, MRS broth, 5% CO2
[1] = tested on: C. difficile clinical isolates; assay: MIC against a panel of 20 C. difficile clinical isolates (broth microdilution); type: cell-based, Clostridioides difficile; conditions: for MIC50: concentration that inhibited 50% of the 20 C. difficile clinical isolates; for MIC90: concentration that inhibited 90% of the 20 C. difficile clinical isolates; for MIC: read-out: minimum inhibitory concentration (MIC)
[2] = tested on: C. difficile ATCC BAA-1870; assay: MIC of active hits by broth microdilution; conditions: C. difficile ATCC BAA-1870, 48 h anaerobic
A. baumannii = tested on: A. baumannii; parameters: method as in PMID 31105656; conditions: cited from earlier work
[3] = tested on: vancomycin-resistant enterococci (VRE); parameters: method as in PMID 26765953; conditions: cited from earlier work
MRSA = tested on: MRSA; parameters: method as in PMID 26765953; conditions: cited from earlier work
enterococcal species = assay: MIC against human gut microbiota, summary in text; type: cell-based; conditions: summary over the Enterococcus strains of Table 4
[4] = tested on: Acinetobacter calcoaceticus; parameters: method as in PMID 31105656; conditions: cited from earlier work
[5] = Bif. longum HM- 845, BHIS broth
[6] = Bif. longum HM- 846, BHIS broth
[7] = Bif. longum HM- 847, BHIS broth
[8] = Bif. longum HM- 848, BHIS broth
[9] = B. fragilis HM- 709, BHIS broth
[10] = B. fragilis HM- 718, BHIS broth

Milbemycin oxime
>256 µg/mL: minimum inhibitory concentration (MIC) (L. brevis) | minimum inhibitory concentration (MIC) (B. dorei) | minimum inhibitory concentration (MIC) (L. casei) | minimum inhibitory concentration (MIC) (B. fragilis; [10]) | minimum inhibitory concentration (MIC) (L. rhamanosus)
8 µg/mL: minimum inhibitory concentration (MIC) (Bif. longum; [5]) | minimum inhibitory concentration (MIC) (Bif. longum; [6]) | minimum inhibitory concentration (MIC) (Bif. longum; [7]) | minimum inhibitory concentration (MIC) (Bif. longum; [8]) | minimum inhibitory concentration (MIC) (E. fecalis) | minimum inhibitory concentration (MIC) ([1]; C. difficile ATCC BAA-1870 (Ribotype-027), purchased compounds, panel test) | minimum inhibitory concentration (MIC) ([1]; C. difficile CD-13) | minimum inhibitory concentration (MIC) ([1]; C. difficile CD-22) | minimum inhibitory concentration (MIC) ([1]; C. difficile CD-28) | minimum inhibitory concentration (MIC) ([1]; C. difficile NR-49304) | minimum inhibitory concentration (MIC) ([1]; C. difficile NR-49319) | MIC90 [1]
4 µg/mL: minimum inhibitory concentration (MIC) (Bif. adolescentis) | minimum inhibitory concentration (MIC) (Bif. breve) | minimum inhibitory concentration (MIC) (Bif. angulatum) | minimum inhibitory concentration (MIC) (E. faecium) | minimum inhibitory concentration (MIC) ([1]; C. difficile ATCC 630) | minimum inhibitory concentration (MIC) ([1]; C. difficile ATCC 43255) | minimum inhibitory concentration (MIC) ([1]; C. difficile CD-1 (Ribotype-027)) | minimum inhibitory concentration (MIC) ([1]; C. difficile CD-6 (Ribotype-027)) | minimum inhibitory concentration (MIC) ([1]; C. difficile CD-10(Ribotype-027)) | minimum inhibitory concentration (MIC) ([1]; C. difficile CD-12) | minimum inhibitory concentration (MIC) ([1]; C. difficile CD-15) | minimum inhibitory concentration (MIC) ([1]; C. difficile CD-23) | minimum inhibitory concentration (MIC) ([1]; C. difficile CD-24) | minimum inhibitory concentration (MIC) ([1]; C. difficile CD-26 (Ribotype-027)) | minimum inhibitory concentration (MIC) ([1]; C. difficile CD-29 (Ribotype-027)) | minimum inhibitory concentration (MIC) ([1]; C. difficile CD-30) | minimum inhibitory concentration (MIC) ([1]; C. difficile NR-49302) | minimum inhibitory concentration (MIC) ([1]; C. difficile NR-49308) | MIC50 [1]
< 8 µg/mL: MIC (antimycobacterial activity) (mycobacteria)
4 µM: MIC (μM) [2]
4.39 µg/mL: MIC (μg/mL) [2]
32 µg/mL: minimum inhibitory concentration (MIC) (B. fragilis; [9])

N=C(N/N=C/c1ccc(Cl)cc1)N/N=C/c1ccc(Cl)cc1 [Robenidine hydrochloride]
4.7 µM: MIC [3]
8 µg/mL: MIC (A. baumannii) | MIC (L. brevis; Levilactobacillus brevis, ATCC14864, read-out: minimum inhibitory concentration (MIC))
8.1 µM: MIC (MRSA)
1 µg/mL: MIC50 ([1]; Clostridioides difficile, 48 h, read-out: MIC50) | MIC ([1]; Clostridioides difficile, ATCC630, C. difficile ATCC 630) | MIC ([1]; Clostridioides difficile, ATCC43255, C. difficile ATCC 43255) | MIC ([1]; Clostridioides difficile, C. difficile CD-1 (Ribotype-027)) | MIC ([1]; Clostridioides difficile, C. difficile CD-6 (Ribotype-027)) | MIC ([1]; Clostridioides difficile, C. difficile CD-10(Ribotype-027)) | MIC ([1]; Clostridioides difficile, C. difficile CD-12) | MIC ([1]; Clostridioides difficile, C. difficile CD-23) | MIC ([1]; Clostridioides difficile, C. difficile CD-24) | MIC ([1]; Clostridioides difficile, C. difficile CD-26 (Ribotype-027)) | MIC ([1]; Clostridioides difficile, C. difficile CD-28) | MIC ([1]; Clostridioides difficile, C. difficile CD-29 (Ribotype-027)) | MIC ([1]; Clostridioides difficile, C. difficile NR-49302) | MIC ([1]; Clostridioides difficile, C. difficile NR-49304) | MIC ([1]; Clostridioides difficile, C. difficile NR-49308) | MIC ([1]; Clostridioides difficile, C. difficile NR-49319) | MIC50 ([1]; Clostridioides difficile, read-out: MIC50)
8 µM: MIC (μM) [2]
2.97 µg/mL: MIC ([2]; Clostridioides difficile, ATCCBAA1870, 48 h)
≤ 2 µg/mL: MIC (Bif. adolescentis; Bifidobacterium adolescentis, read-out: minimum inhibitory concentration (MIC)) | MIC (B. dorei; Phocaeicola dorei, read-out: minimum inhibitory concentration (MIC)) | MIC (enterococcal species) | MIC (Bif. breve; Bifidobacterium breve, ATCC15700, read-out: minimum inhibitory concentration (MIC)) | MIC (Bif. longum; [5]) | MIC (Bif. longum; [6]) | MIC (Bif. longum; [7]) | MIC (Bif. longum; [8]) | MIC (Bif. angulatum; Bifidobacterium angulatum, read-out: minimum inhibitory concentration (MIC)) | MIC (E. faecium; Enterococcus faecium, read-out: minimum inhibitory concentration (MIC)) | MIC (E. fecalis; Enterococcus faecalis, read-out: minimum inhibitory concentration (MIC)) | MIC (B. fragilis; [9]) | MIC (B. fragilis; [10])
2 µg/mL: MIC [4] | MIC ([1]; Clostridioides difficile, ATCCBAA1870, C. difficile ATCC BAA-1870 (Ribotype-027), purchased compounds, panel test) | MIC ([1]; Clostridioides difficile, C. difficile CD-13) | MIC ([1]; Clostridioides difficile, C. difficile CD-15) | MIC ([1]; Clostridioides difficile, C. difficile CD-22) | MIC ([1]; Clostridioides difficile, C. difficile CD-30) | MIC90 ([1]; Clostridioides difficile, read-out: MIC90)
16 µg/mL: MIC (L. casei; Lacticaseibacillus casei, ATCC334, read-out: minimum inhibitory concentration (MIC)) | MIC (L. rhamanosus; Lactobacillus, ATCC53103, read-out: minimum inhibitory concentration (MIC))
